Columns and labels:
[1] = target: T1, purified human Factor XIa (Homo sapiens, UniProt P03951); test: Factor XIa Assay; assay type: biochemical; details: fluorogenic substrate Z-Gly-Pro-Arg-AFC 100 μM, 40 pM enzyme, pH 7.4, read-out: F11a IC50
T1 construct: purified human Factor XIa; purchased Sekisui Diagnostics
Description: The effectiveness of a compound of the present invention as an inhibitor of Coagulation Factor XIa can be determined using a relevant purified serine protease, and an appropriate synthetic substrate. The rate of hydrolysis of the chromogenic or fluorogenic substrate by the relevant serine protease was measured both in the absence and presence of compounds of the present invention. Assays were conducted at room temperature or at 37° C. […] A decrease in the rate of fluorescence change in the presence of inhibitor is indicative of enzyme inhibition. Such methods are known to one skilled in the art. […]
Factor XIa determinations were made in 50 mM HEPES buffer at pH 7.4 containing 150 mM NaCl, 5 mM CaCl2, and 0.1% PEG 8000 (polyethylene glycol; JT Baker or Fisher Scientific). Determinations were made using purified human Factor XIa at a final concentration of 40 pM (Sekisui Diagnostics) and he synthetic substrate, Z-Gly-Pro-Arg-AFC, TFA salt (Sigma #C0980) at a concentration of 100 μM.
Activity assays were performed by diluting a stock solution of substrate at least tenfold to a final concentration ≦0.1 Km into a solution containing enzyme or enzyme equilibrated with inhibitor. Times required to achieve equilibration between enzyme and inhibitor were determined in control experiments. Initial velocities of product formation in the absence (VO) or presence of inhibitor (Vi) were measured. Assuming competitive inhibition, and that unity is negligible compared Km/[S], [I]/e, and [I]/e (where [S], [I], and e respectively represent the total concentrations, of substrate, inhibitor and enzyme), the equilibrium constant (Ki) for dissociation of the inhibitor from the enzyme can be obtained from the dependence of VO/Vi on [I] shown in the following equation.

[2] = target: T2, purified Human plasma kallikrein (Homo sapiens, UniProt P03952); test: Kallikrein Assay; assay type: biochemical; details: Plasma Kallekrein IC50; fluorogenic substrate Acetyl-K-P-R-AFC, 0.5 nM enzyme, pH 7.4; read-out: PK IC50
T2 construct: yields a heavy chain (371 amino acids) and a light chain (248 amino acids); purchased Enzyme Research Laboratories
T2 sequence (P03952 391-638 limits assumed): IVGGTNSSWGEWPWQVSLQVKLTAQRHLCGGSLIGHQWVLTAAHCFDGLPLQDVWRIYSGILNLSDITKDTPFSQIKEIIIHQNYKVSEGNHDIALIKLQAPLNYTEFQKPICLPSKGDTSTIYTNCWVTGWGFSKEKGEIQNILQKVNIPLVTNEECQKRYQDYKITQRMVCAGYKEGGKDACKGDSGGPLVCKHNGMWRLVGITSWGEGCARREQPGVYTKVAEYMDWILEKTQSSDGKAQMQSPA
T2 sequence (P03952 20-390 partner limits assumed): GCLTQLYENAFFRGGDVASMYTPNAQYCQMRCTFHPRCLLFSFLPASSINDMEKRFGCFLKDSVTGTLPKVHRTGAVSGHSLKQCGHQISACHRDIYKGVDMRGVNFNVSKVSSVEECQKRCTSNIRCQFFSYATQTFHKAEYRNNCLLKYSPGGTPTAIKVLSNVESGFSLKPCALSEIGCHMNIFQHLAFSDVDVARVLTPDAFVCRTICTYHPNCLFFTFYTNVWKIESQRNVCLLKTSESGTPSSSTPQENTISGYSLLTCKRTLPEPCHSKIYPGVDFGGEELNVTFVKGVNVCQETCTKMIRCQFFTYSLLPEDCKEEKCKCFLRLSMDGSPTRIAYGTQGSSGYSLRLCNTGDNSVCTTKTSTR
Description: The effectiveness of a compound of the present invention as an inhibitor of Kallikrein can be determined using a relevant purified serine protease, and an appropriate synthetic substrate. The rate of hydrolysis of the chromogenic or fluorogenic substrate by the relevant serine protease was measured both in the absence and presence of compounds of the present invention. Assays were conducted at room temperature or at 37° C. […] A decrease in the rate of fluorescence change in the presence of inhibitor is indicative of enzyme inhibition. Such methods are known to one skilled in the art. The results of this assay are expressed as the inhibitory constant, K1.
Kallikrein determinations were made in 50 mM HEPES buffer at pH 7.4 containing 150 mM NaCl, 5 mM CaCl2, and 0.1% PEG 8000 (polyethylene glycol; Fisher Scientific). Determinations were made using purified Human plasma kallikrein at a final concentration of 0.5 nM (Enzyme Research Laboratories) and the synthetic substrate, Acetyl-K—P—R-AFC (Sigma # C6608) at a concentration of […].
Times required to achieve equilibration between enzyme and inhibitor were determined in control experiments. The reactions were performed under linear progress curve conditions and fluorescence increase measured at 405 Ex/510 Em nm. […] IC50 was determined by inflection point from a four parameter logistic curve fit. Ki was calculated using the Cheng Prusoff equation, Ki=IC50/(1+([S]/Km)).

T1 sequence (P03951 388-625 limits assumed): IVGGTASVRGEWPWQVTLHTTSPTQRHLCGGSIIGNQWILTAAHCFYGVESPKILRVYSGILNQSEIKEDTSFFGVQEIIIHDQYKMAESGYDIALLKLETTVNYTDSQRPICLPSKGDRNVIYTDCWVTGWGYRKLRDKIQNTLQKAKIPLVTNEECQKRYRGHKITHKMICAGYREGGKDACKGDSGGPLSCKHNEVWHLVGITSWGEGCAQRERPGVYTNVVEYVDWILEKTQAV
T1 sequence (P03951 19-387 partner limits assumed): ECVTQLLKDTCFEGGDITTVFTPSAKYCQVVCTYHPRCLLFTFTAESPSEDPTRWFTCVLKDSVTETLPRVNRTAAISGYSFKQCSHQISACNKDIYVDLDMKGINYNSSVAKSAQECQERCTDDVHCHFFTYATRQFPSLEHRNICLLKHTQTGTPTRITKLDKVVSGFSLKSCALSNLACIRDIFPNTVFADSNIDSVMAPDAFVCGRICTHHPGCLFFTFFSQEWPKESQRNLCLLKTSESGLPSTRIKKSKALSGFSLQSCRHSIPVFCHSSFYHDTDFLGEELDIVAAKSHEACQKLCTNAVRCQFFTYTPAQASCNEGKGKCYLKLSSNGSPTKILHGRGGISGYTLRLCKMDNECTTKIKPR

Structure (SMILES)	IC50 [1]	IC50 [2]
Nc1ccc(-c2cnc(C(CC3CC3)c3ccc(-c4cc(Cl)ccc4-n4cnnn4)c[n+]3[O-])[nH]2)c(Cl)n1 (single isomer, unassigned) [Example 47, 6-chloro-5-[2-(1-{5-[5-chloro-2-(1H-tetrazol-1-yl)phenyl]-1-oxidopyridin-2-yl}-2-cyclopropylethyl)-1H-imidazol-5-yl]pyridin-2-amine]	0.00032 µM	0.08 µM
Nc1ccc(-c2c[nH]c(C(CC3CC3)c3ccc(-c4cc(Cl)ccc4-n4cnnn4)c[n+]3[O-])n2)cn1 (single isomer, unassigned) [Example 49]	0.0195 µM	2.12 µM
Nc1ccc(-c2c[nH]c(C(CC3CC3)c3ccc(-c4cc(Cl)ccc4-n4cnnn4)c[n+]3[O-])n2)cn1 (single isomer, unassigned) [Example 50]	0.00108 µM	0.228 µM
O=C(O)c1cccc(-c2cnc(C(CC3CC3)c3ccc(-c4cc(Cl)ccc4-n4cnnn4)c[n+]3[O-])[nH]2)c1F (single isomer, unassigned) [Example 51, 3-[2-(1-{5-[5-chloro-2-(1H-tetrazol-1-yl)phenyl]-1-oxidopyridin-2-yl}-2-cyclopropylethyl)-1H-imidazol-5-yl]-2-fluorobenzoic acid]	0.00087 µM	0.08 µM
O=C(O)c1cccc(-c2c[nH]c(C(CC3CC3)c3ccc(-c4cc(Cl)ccc4-n4cnnn4)c[n+]3[O-])n2)c1 (single isomer, unassigned) [Example 53]	0.0009 µM	0.062 µM
O=C(O)c1ccc(-c2cnc(C(CC3CC3)c3ccc(-c4cc(Cl)ccc4-n4cnnn4)c[n+]3[O-])[nH]2)cc1 (single isomer, unassigned) [Example 56]	0.011 µM	0.241 µM
O=C(O)c1scc(-c2cnc(C(CC3CC3)c3ccc(-c4cc(Cl)ccc4-n4cnnn4)c[n+]3[O-])[nH]2)c1F (single isomer, unassigned) [Example 57, 2-(1-(5-(5-carboxy-4-fluorothiophen-3-yl)-1H-imidazol-2-yl)-2-cyclopropylethyl)-5-(5-chloro-2-(1H-tetrazol-1-yl)phenyl)pyridine 1-oxide]	0.0015 µM	0.058 µM
O=C(O)c1scc(-c2cnc(C(CC3CC3)c3ccc(-c4cc(Cl)ccc4-n4cnnn4)c[n+]3[O-])[nH]2)c1F (single isomer, unassigned) [Example 58, 2-(1-(5-(5-carboxy-4-fluorothiophen-3-yl)-1H-imidazol-2-yl)-2-cyclopropylethyl)-5-(5-chloro-2-(1H-tetrazol-1-yl)phenyl)pyridine 1-oxide]	0.0118 µM	1.05 µM
NC(=O)c1scc(-c2cnc(C(CC3CC3)c3ccc(-c4cc(Cl)ccc4-n4cnnn4)c[n+]3[O-])[nH]2)c1F (single isomer, unassigned) [Example 60, 2-(1-(5-(5-carbamoyl-4-fluorothiophen-3-yl)-1H-imidazol-2-yl)-2-cyclopropylethyl)-5-(5-chloro-2-(1H-tetrazol-1-yl)phenyl)pyridine 1-oxide]	0.0049 µM	0.076 µM
COC(=O)c1scc(-c2cnc(C(CC3CC3)c3ccc(-c4cc(Cl)ccc4-n4cnnn4)c[n+]3[O-])[nH]2)c1F (single isomer, unassigned) [Example 61, Methyl 4-[2-(1-{5-[5-chloro-2-(1H-tetrazol-1-yl)phenyl]-1-oxidopyridin-2-yl}-2-cyclopropylethyl)-1H-imidazol-5-yl]-3-fluorothiophene-2-carboxylate]	0.053 µM	0.343 µM
COC(=O)Nc1ccc(-c2cnc(C(CC3CC3)c3ccc(-c4cc(Cl)ccc4-c4cnco4)c[n+]3[O-])[nH]2)cc1 (single isomer, unassigned) [Example 69]	0.048 µM	0.358 µM
COC(=O)Nc1ccc(-c2[nH]c(C(CC3CC3)c3ccc(-c4cc(Cl)ccc4-n4cnnn4)c[n+]3[O-])nc2C)cc1 (single isomer, unassigned) [Example 76, methyl {4-[2-(1-{5-[5-chloro-2-(1H-tetrazol-1-yl)phenyl]-1-oxidopyridin-2-yl}-2-cyclopropylethyl)-4-methyl-1H-imidazol-5-yl]phenyl}carbamate]	0.0368 µM	0.802 µM
COC(=O)Nc1ccc(-c2[nH]c(C(CC3CC3)c3ccc(-c4cc(Cl)ccc4-n4cnnn4)c[n+]3[O-])nc2C)cc1 (single isomer, unassigned) [Example 77, methyl {4-[2-(1-{5-[5-chloro-2-(1H-tetrazol-1-yl)phenyl]-1-oxidopyridin-2-yl}-2-cyclopropylethyl)-4-methyl-1H-imidazol-5-yl]phenyl}carbamate]	0.00152 µM	0.048 µM
COC(=O)Nc1ccc(-c2[nH]c(C(CC3CC3)c3ccc(-c4cc(Cl)ccc4-n4cnnn4)c[n+]3[O-])nc2Cl)cc1 (single isomer, unassigned) [Example 79, 5-(5-chloro-2-(1H-tetrazol-1-yl)phenyl)-2-(1-(4-chloro-5-(4-((methoxycarbonyl)amino)phenyl)-1H-imidazol-2-yl)-2-cyclopropylethyl)pyridine 1-oxide]	0.0005 µM	0.024 µM
COC(=O)Nc1ccc(-c2nc([C@H](Cc3ccccc3)c3ccc(-c4cc(Cl)ccc4-n4cnnn4)c[n+]3[O-])[nH]c2Cl)cc1 [Example 1, (R) 5-(5-Chloro-2-(1H-tetrazol-1-yl)phenyl)-2-(1-(5-chloro-4-(4-((methoxycarbonyl)amino)phenyl)-1H-imidazol-2-yl)-2-phenylethyl)pyridine 1-oxide]	0.00134 µM	0.00152 µM
COC(=O)Nc1ccc(-c2nc([C@@H](Cc3ccccc3)c3ccc(-c4cc(Cl)ccc4-n4cnnn4)c[n+]3[O-])[nH]c2Cl)cc1 [Example 2, (S) 5-(5-Chloro-2-(1H-tetrazol-1-yl)phenyl)-2-(1-(5-chloro-4-(4-((methoxycarbonyl)amino)phenyl)-1H-imidazol-2-yl)-2-phenylethyl)pyridine 1-oxide]	0.00282 µM	0.0761 µM
COC(=O)Nc1ccc(-c2cnc([C@H](Cc3ccccc3)c3ccc(-c4c(-n5cnnn5)ccc(Cl)c4F)c[n+]3[O-])[nH]2)cc1 [Example 23]	0.00104 µM	0.00154 µM
COC(=O)Nc1ccc(-c2cnc([C@@H](Cc3ccccc3)c3ccc(-c4c(-n5cnnn5)ccc(Cl)c4F)c[n+]3[O-])[nH]2)cc1 [Example 24]	0.00236 µM	0.0887 µM
COC(=O)Nc1ccc(-c2cnc([C@H](Cc3ccccc3)c3ccc(-c4cc(Cl)ccc4-c4cnco4)c[n+]3[O-])[nH]2)cc1 [Example 25]	0.00331 µM	0.0241 µM
